Experiment [1] has as its system Grb2 SH2 domain. The experiment in a line: Surface plasmon resonance (Biacore): inhibition of GST-Grb2 binding to immobilised SHC phosphopeptide. As to conditions: for inhibition of Grb2 binding to the SHC phosphopeptide: peptide at 50 µM; for inhibiting activity: peptide at 500 µM. From the text:
The G1 peptide (CELYENVGMYC [disulfide bonded]) was used as an inhibitor of the interaction of the Grb2 with a SHC phosphopeptide in surface plasmon resonance (Biacore) experiments. The SHC phosphopeptide was attached to the solid surface by incorporation of a biotin at the N-terminus as described in Pelicci, G., et al., "The motogenic and mitogenic responses to HGF are amplified by the Shc adaptor protein," Oncogene, 10: 1631-1638, 1995. This biotinylated phospho-SHC peptide was then bound to the streptavidin on the surface of SA5 chips (Pharmacia-Biacore). The binding was conducted at a 2nM and 5 µl/minute for 10 minutes. The peptides were mixed with 200 nM GST-Grb2 in HBS buffer (Pharmacia Biacore) and allowed to bind for 10 minutes at a flow rate of 5 µl/minute. The Ru change at equilibrium was calculated and the percent of control (no added peptide) binding was calculated.
The G1 peptide was compared to SHC phosphopeptide (DDPSpYVNVQ), G1C-S (SELYENVGMYS), which is similar to G1 but wherein the cysteines are replaced with serines, and SHC control peptide (DDPSYVNVQ), in which the tyrosine is not phosphorated.
Songyang et al. Mol. Cell Biol., 14:2777-2785 (1994). The requirement of these amino acids in the G1 peptide sequence was tested by synthesizing peptides with alanine substitutions at these positions. G1.4Y-A contains an alanine substitution in place of the tyrosine at position 4 (CELAENVGMYC) and G16N-A contains an alanine substitution for the asparagine at position 6 (CELYEAVGMYC). […] The binding of peptide to the Grb2 SH2 domain was measured by surface plasmon resonance (Pharmacia Biacore). The percent inhibition was calculated by comparison of the Rueq in the presence of peptide with the Rueq with no inhibiting peptide present.
A general note: In SPR one partner is held on a chip, and binding of the other changes the refractive index at the surface.

Experiment [2] concerns cell proliferation. As to conditions: cited from earlier work.
Experiment [3] concerns the target intact GST-Grb2 fusion protein (UniProt P62993). In words: SPR competition in solution, SHC phosphopeptide and G1 for GST-Grb2 compared directly (Figure 6).
Sequence of UniProt P62993 (P62993 whole entry, the tested form may be a part): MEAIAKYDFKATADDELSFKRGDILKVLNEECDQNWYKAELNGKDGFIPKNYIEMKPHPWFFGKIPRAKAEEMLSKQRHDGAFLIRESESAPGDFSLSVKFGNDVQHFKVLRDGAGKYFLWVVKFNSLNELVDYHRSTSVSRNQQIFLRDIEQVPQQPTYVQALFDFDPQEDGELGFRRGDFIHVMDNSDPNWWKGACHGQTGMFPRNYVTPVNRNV

Bridge positions count the residues as written; N and C are the ends. Ends that are not written are not given here.

Consider “CELYEAVGMYC [G16N-A, alanine substitution for the asparagine at position 6]”, for which, in experiment [1], the “inhibition of Grb2 binding to the SHC phosphopeptide” value is recorded as “No inhibition” and the inhibiting activity result is “limited activity”.

Regarding AcpYEEIE, the “block of cell proliferation” value in experiment [2] is “lack of effect”.

Regarding “CELAENVGMYC [G1.4Y-A, alanine substitution in place of the tyrosine at position 4]”, in experiment [1], the “inhibition of Grb2 binding to the SHC phosphopeptide” value is “No inhibition” and the inhibiting activity entry is “limited activity”.

B1: G1 peptide (… [disulfide bonded]) (peptide)
peptide: CELYENVGMYC
modifications: disulfide 1-11
In the case of B1, in experiment [3], the fold difference in affinity against SHC phosphopeptide worked out at 10 fold.

These data come from EP0969854B1, “INHIBITION OF SIGNAL TRANSDUCTION BY THE BINDING OF NON-PHOSPHORYLATED COMPOSITIONS” (GEORGETOWN UNIVERSITY, priority 1996, dated 2006).
